Results taken from paper PMC10320843 (2023).

Assays:
[1] = test system: 5'Cy5-Myc (DNA, G4) GAGGGTGGGGAGGGTGGGGAAG; experiment: Cy5 fluorescence quenching titration; conditions: 50 mM TrisHCl/Triton buffer (Table S1), 25 °C; 20 nM DNA; apparent
[2] = test system: F-TERRA (RNA, G4) GGGUUAGGGUUAGGGUUAGGG; experiment: streptavidin bead pull-down, FAM fluorescence; conditions: Mg2+ (concentration in Table S1); 20 mM TrisHCl/MgCl2 buffer, 25 °C; 10 μM compound, 1 μM nucleic acid; no TASQ = 1
[3] = test system: F-duplex (DNA, hairpin) TATAGCTATATTTTTTTATAGCTATA; experiment: streptavidin bead pull-down, FAM fluorescence; conditions: Mg2+ (concentration in Table S1); 20 mM TrisHCl/MgCl2 buffer, 25 °C; 10 μM compound, 1 μM DNA; no TASQ = 1
[4] = test system: G4-strand (97-nt ODN) (DNA, G4) TAGCCATTCAGCCGTAACAGGCAGTGGAAGAGAGACAGACAGGGCAGGGCAGGGCAGGGCAGTACAGTAGAACCTAATGGTGTTTGATGGTATCTAA; experiment: streptavidin bead pull-down, qPCR (SYBR green); conditions: 40 μM compound, 4 μM DNA; fluorescence difference from no TASQ
[5] = test system: F-NRAS (RNA, G4) GGGAGGGGCGGGUCUGGG; experiment: streptavidin bead pull-down, FAM fluorescence; conditions: Mg2+ (concentration in Table S1); 20 mM TrisHCl/MgCl2 buffer, 25 °C; 10 μM compound, 1 μM nucleic acid; no TASQ = 1
[6] = test system: F-22AG (DNA, G4) AGGGTTAGGGTTAGGGTTAGGG; experiment: streptavidin bead pull-down, FAM fluorescence; conditions: Mg2+ (concentration in Table S1); 20 mM TrisHCl/MgCl2 buffer, 25 °C; 10 μM compound, 1 μM nucleic acid; no TASQ = 1
[7] = test system: F-VEGF (RNA, G4) GGAGGAGGGGAGGAGGA; experiment: streptavidin bead pull-down, FAM fluorescence; conditions: Mg2+ (concentration in Table S1); 20 mM TrisHCl/MgCl2 buffer, 25 °C; 10 μM compound, 1 μM nucleic acid; no TASQ = 1
[8] = test system: F-Myc (DNA, G4) GAGGGTGGGGAGGGTGGGGAAG; experiment: streptavidin bead pull-down, FAM fluorescence; conditions: Mg2+ (concentration in Table S1); 20 mM TrisHCl/MgCl2 buffer, 25 °C; 10 μM compound, 1 μM nucleic acid; no TASQ = 1
[9] = test system: F-VEGF-T (RNA, G4) GGAGGAGGGGAGGAGGA; experiment: FRET-melting; conditions: K+ (CacoK1, Table S1); CacoK1 buffer; 1 μM compound, 0.2 μM nucleic acid; no competitor
[10] = test system: F-Myc-T (DNA, G4) GAGGGTGGGGAGGGTGGGGAAG; experiment: FRET-melting; conditions: K+ (CacoK1, Table S1); CacoK1 buffer; 1 μM compound, 0.2 μM nucleic acid; no competitor
[11] = test system: F-NRAS-T (RNA, G4) GGGAGGGGCGGGUCUGGG; experiment: FRET-melting; conditions: 1 μM compound, 0.2 μM RNA; no competitor; buffer not stated
[12] = test system: F-Kit2-T (DNA, G4) CGGGCGGGCGCGAGGGAGGGG; experiment: FRET-melting; conditions: buffer not stated in main text
[13] = test system: F21T (DNA, G4) GGGTTAGGGTTAGGGTTAGGG; experiment: FRET-melting; conditions: K+ (CacoK10, Table S1); CacoK10 buffer; 1 μM compound, 0.2 μM nucleic acid; no competitor
[14] = test system: F-TERRA-T (RNA, G4) GGGUUAGGGUUAGGGUUAGGG; experiment: FRET-melting; conditions: K+ (CacoK1, Table S1); CacoK1 buffer; 1 μM compound, 0.2 μM nucleic acid; no competitor

Row | appKD [1] | fold enrichment [2] | fold enrichment [3] | ΔFI [4] | fold enrichment [5] | fold enrichment [6] | fold enrichment [7] | fold enrichment [8] | ΔT1/2 [9] | ΔT1/2 [10] | ΔT1/2 [11] | ΔT1/2 [12] | ΔT1/2 [13] | ΔT1/2 [14] | Structure (SMILES)
1 | 0.0577 ± 0.0002 µM |  |  |  |  |  |  |  |  |  |  |  |  |  | C[n+]1cc(NC(=O)c2ccc3ccc4ccc(C(=O)Nc5cc6ccccc6[n+](C)c5)nc4c3n2)cc2ccccc21
2 | 1.01 ± 0.1 µM | 4.0 ± 0.0 fold | 0.9 ± 0.2 fold | 457 | 5.2 ± 0.9 fold | 15.9 ± 0.9 fold | 8.2 ± 0.2 fold | 21.5 ± 0.1 fold |  |  |  |  |  |  | NCCN(CC(=O)NCCCCCN1CCN(CCCCCNC(=O)CN(CCN)C(=O)Cn2cnc3c(=O)[nH]c(N)nc32)CCN(CCCCCNC(=O)CN(CCN)C(=O)Cn2cnc3c(=O)[nH]c(N)nc32)C(CNC(=O)CCCC[C@@H]2SC[C@@H]3NC(=O)N[C@@H]32)CN(CCCCCNC(=O)CN(CCN)C(=O)Cn2cnc3c(=O)[nH]c(N)nc32)CC1)C(=O)Cn1cnc2c(=O)[nH]c(N)nc21 (some centres unmarked)
3 | 1.44 ± 0.1 µM |  |  |  |  |  |  |  | 11.9 ± 0.4 °C | 5.3 ± 0.3 °C | 11.8 ± 0.7 °C | 5.8 ± 0.2 °C | 2.5 ± 0.2 °C | 11.0 ± 0.9 °C | C#CCCCC(=O)NCC1CN(CCCCCNC(=O)CN(CCN)C(=O)Cn2cnc3c(=O)[nH]c(N)nc32)CCN(CCCCCNC(=O)CN(CCN)C(=O)Cn2cnc3c(=O)[nH]c(N)nc32)CCN(CCCCCNC(=O)CN(CCN)C(=O)Cn2cnc3c(=O)[nH]c(N)nc32)CCN1CCCCCNC(=O)CN(CCN)C(=O)Cn1cnc2c(=O)[nH]c(N)nc21 (centres unmarked)
4 | 0.90 ± 0.1 µM |  |  |  |  |  |  |  | 11.3 ± 0.4 °C | 6.4 ± 0.2 °C | 14.6 ± 1.1 °C | 7.7 ± 1.0 °C | 2.2 ± 0.3 °C | 12.4 ± 0.6 °C | [N-]=[N+]=NCCCCCC(=O)NCC1CN(CCCCCNC(=O)CN(CCN)C(=O)Cn2cnc3c(=O)[nH]c(N)nc32)CCN(CCCCCNC(=O)CN(CCN)C(=O)Cn2cnc3c(=O)[nH]c(N)nc32)CCN(CCCCCNC(=O)CN(CCN)C(=O)Cn2cnc3c(=O)[nH]c(N)nc32)CCN1CCCCCNC(=O)CN(CCN)C(=O)Cn1cnc2c(=O)[nH]c(N)nc21 (centres unmarked)
